Experiments:
Test in all cases: MIC determination
Assay type in all cases: cell-based
[1] = tested on: Pseudomonas aeruginosa PA-RR-(98023895); settings: Pseudomonas aeruginosa; PA-RR-(98023895); CAMH broth, 20 μM Apo-Transferrin, 37° C., 18 hours; read-out: Minimum Inhibitory Concentrations, PA-RR-(98023895)
Method in brief: (§1)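 Values come from a visual broth microdilution read: the first transparent well at the lowest drug level defines MIC. Inocula were standardized to 0.5 McFarland units, and the medium was CAMH with 20 μM apo-transferrin. Plates incubated overnight, 18 h, at 37 °C.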

[2] = tested on: Pseudomonas aeruginosa PA-RR-(G7294437); settings: Pseudomonas aeruginosa; PA-RR-(G7294437); CAMH broth, 20 μM Apo-Transferrin, 37° C., 18 hours; read-out: Minimum Inhibitory Concentrations, PA-RR-(G7294437)
Method in brief: as §1

[3] = tested on: Pseudomonas aeruginosa PA (URMC-2); settings: Pseudomonas aeruginosa; PA (URMC-2); CAMH broth, 20 μM Apo-Transferrin, 37° C., 18 hours; read-out: Minimum Inhibitory Concentrations, PA (URMC-2)
Method in brief: as §1

[4] = tested on: Pseudomonas aeruginosa PA (URMC-3); settings: Pseudomonas aeruginosa; PA (URMC-3); CAMH broth, 20 μM Apo-Transferrin, 37° C., 18 hours; read-out: Minimum Inhibitory Concentrations, PA (URMC-3)
Method in brief: as §1

[5] = tested on: Pseudomonas aeruginosa (PA); settings: Pseudomonas aeruginosa; PA; CAMH broth, 20 μM Apo-Transferrin, 37° C., 18 hours; read-out: Minimum Inhibitory Concentrations, PA
Method in brief: as §1

[6] = tested on: Pseudomonas aeruginosa PA-RR-(G7304100); settings: Pseudomonas aeruginosa; PA-RR-(G7304100); CAMH broth, 20 μM Apo-Transferrin, 37° C., 18 hours; read-out: Minimum Inhibitory Concentrations, PA-RR-(G7304100)
Method in brief: as §1

| SMILES | MIC [1] [µg/mL] | MIC [2] [µg/mL] | MIC [3] [µg/mL] | MIC [4] [µg/mL] | MIC [5] [µg/mL] | MIC [6] [µg/mL] |
| --- | --- | --- | --- | --- | --- | --- |
| CC(C)(O/N=C(\C(=O)N[C@@H]1C(=O)N2C(C(=O)O)=C(C=Cc3ccc(C[n+]4ccc(NC(=O)c5ccc(O)c(O)c5)cc4)cc3)CS[C@H]12)c1csc(N)n1)C(=O)O (mixture of isomers) [Compound 427, 1-(4-((E/Z)-2-((6R,7R)-7-((Z)-2-(2-aminothiazol-4-yl)-2-(((2-carboxypropan-2-yl)oxy)imino)acetamido)-2-carboxy-8-oxo-5-thia-1-azabicyclo[4.2.0]oct-2-en-3-yl)vinyl)benzyl)-4-(3,4-dihydroxybenzamido)pyridin-1-ium] | 4 | ≤ 0.06 | 0.06 | 0.25 | 0.06 | ≤ 0.06 |
| Cc1c[n+](Cc2ccc(C=CC3=C(C(=O)O)N4C(=O)[C@@H](NC(=O)/C(=N\OC(C)(C)C(=O)O)c5csc(N)n5)[C@H]4SC3)cc2)ccc1-c1ccc(O)c(O)c1 (mixture of isomers) [Compound 422, 1-(4-((E/Z)-2-((6R,7R)-7-((Z)-2-(2-aminothiazol-4-yl)-2-(((2-carboxypropan-2-yl)oxy)imino)acetamido)-2-carboxy-8-oxo-5-thia-1-azabicyclo[4.2.0]oct-2-en-3-yl)vinyl)benzyl)-4-(3,4-dihydroxyphenyl)-3-methylpyridin-1-ium] | 8 | 2 | 4 | ≤ 0.06 | 8 | ≤ 0.06 |
| CC(C)(O/N=C(\C(=O)N[C@@H]1C(=O)N2C(C(=O)O)=C(C=Cc3ccc(C[n+]4cccc(-c5ccc(O)c(O)c5)c4)cc3)CS[C@H]12)c1csc(N)n1)C(=O)O (mixture of isomers) [Compound 413, 1-(4-((E/Z)-2-((6R,7R)-7-((Z)-2-(2-aminothiazol-4-yl)-2-(((2-carboxypropan-2-yl)oxy)imino)acetamido)-2-carboxy-8-oxo-5-thia-1-azabicyclo[4.2.0]oct-2-en-3 yl)vinyl)benzyl)-3-(3,4-dihydroxyphenyl)pyridin-1-ium] | 4 | 1 | 4 | 0.13 | 4 | ≤ 0.06 |
| CC(C)(O/N=C(\C(=O)N[C@@H]1C(=O)N2C(C(=O)O)=C(C=Cc3ccc(C[N+]4(C)Cc5cc(O)c(O)cc5C4)cc3)CS[C@H]12)c1csc(N)n1)C(=O)O (mixture of isomers) [Compound 424, 2-(4-((E/Z)-2-((6R,7R)-7-((Z)-2-(2-aminothiazol-4-yl)-2-(((2-carboxypropan-2-yl)oxy)imino)acetamido)-2-carboxy-8-oxo-5-thia-1-azabicyclo[4.2.0]oct-2-en-3-yl)vinyl)benzyl)-5,6-dihydroxy-2-methylisoindolin-2-ium] | 8 | 0.25 | 4 | 0.13 | 2 | ≤ 0.06 |
| Cn1c[n+](Cc2ccc(C=CC3=C(C(=O)O)N4C(=O)[C@@H](NC(=O)/C(=N\OC(C)(C)C(=O)O)c5csc(N)n5)[C@H]4SC3)cc2)cc1C(=O)Nc1ccc(O)c(O)c1 (mixture of isomers) [Compound 411, 3-(4-((E/Z)-2-((6R,7R)-7-((Z)-2-(2-aminothiazol-4-yl)-2-(((2-carboxypropan-2-yl)oxy)imino)acetamido)-2-carboxy-8-oxo-5-thia-1-azabicyclo[4.2.0]oct-2-en-3-yl)vinyl)benzyl)-5-((3,4-dihydroxyphenyl)carbamoyl)-1-methyl-1H-imidazol-3-ium] | 8 | 1 | 4 | 0.5 | 8 | 1 |
| CC(C)(O/N=C(\C(=O)N[C@@H]1C(=O)N2C(C(=O)O)=C(C=Cc3ccc(C[N+](C)(C)Cc4cc(O)c(O)c(Cl)c4)cc3)CS[C@H]12)c1csc(N)n1)C(=O)O (mixture of isomers) [Compound 436, N-(4-((E/Z)-2-((6R,7R)-7-((Z)-2-(2-aminothiazol-4-yl)-2-(((2-carboxypropan-2-yl)oxy)imino)acetamido)-2-carboxy-8-oxo-5-thia-1-azabicyclo[4.2.0]oct-2-en-3-yl)vinyl)benzyl)-1-(3-chloro-4,5-dihydroxyphenyl)-N,N-dimethylmethanaminium] | 4 | 0.5 | 8 | 64 | 8 | 4 |
| CC(C)(O/N=C(\C(=O)N[C@@H]1C(=O)N2C(C(=O)O)=C(C=Cc3ccc(C[N+](C)(C)Cc4ccc(O)c(O)c4)cc3)CS[C@H]12)c1csc(N)n1)C(=O)O (mixture of isomers) [Compound 426, N-(4-((E/Z)-2-((6R,7R)-7-((Z)-2-(2-aminothiazol-4-yl)-2-(((2-carboxypropan-2-yl)oxy)imino)acetamido)-2-carboxy-8-oxo-5-thia-1-azabicyclo[4.2.0]oct-2-en-3-yl)vinyl)benzyl)-1-(3,4-dihydroxyphenyl)-N,N-dimethylmethanaminium] | 8 | 0.5 | 4 | 64 | 4 | 0.25 |
| CC(C)(O/N=C(\C(=O)N[C@@H]1C(=O)N2C(C(=O)O)=C(C=Cc3ccc(C[N+](C)(C)Cc4ccc(O)c(O)c4Cl)cc3)CS[C@H]12)c1csc(N)n1)C(=O)O (mixture of isomers) [Compound 434, N-(4-((E/Z)-2-((6R,7R)-7-((Z)-2-(2-aminothiazol-4-yl)-2-(((2-carboxypropan-2-yl)oxy)imino)acetamido)-2-carboxy-8-oxo-5-thia-1-azabicyclo[4.2.0]oct-2-en-3-yl)vinyl)benzyl)-1-(2-chloro-3,4-dihydroxyphenyl)-N,N-dimethylmethanaminium] | 8 | 0.5 | 8 | 16 | 4 | 2 |

Reference: patent publication US20190100534A1, “Cephem Compounds with Latent Reactive Groups” (Gladius Pharmaceuticals, Inc., priority 2017, published 2019)
